For series [1], the system named is Rattus norvegicus. Put plainly: Inhibition of retinal vascular leakage in STZ-induced Wistar rat diabetic retinopathy model assessed as Evans blue albumin level in retina at 50 ug/eye administered intravitreally measured after 3 days (reference value: 82.94 +/- 11.2 ug/g). It is filed as functional.
The subject of series [2] is Rattus norvegicus. Put plainly: Downregulation of TNFalpha level in STZ-induced Wistar rat diabetic retinopathy model at 50 ug/eye administered intravitreally measured after 3 days by Western blot method. The series is classed as functional. A general note: In western blotting, separated proteins are transferred to a membrane and probed.
The subject of series [3] is Rattus norvegicus. Put plainly: Inhibition of retinal vascular leakage in STZ-induced Wistar rat diabetic retinopathy model assessed as reduction in FITC-dextran leakage at 50 ug/eye administered intravitreally measured after 3 days by fluorescence microscopic method. The series is classed as functional.
For series [4], the system named is Rattus norvegicus. Kind of series: Downregulation of ICAM-1 level in STZ-induced Wistar rat diabetic retinopathy model at 50 ug/eye administered intravitreally measured after 3 days by Western blot method. The series is classed as functional.
Series [5] deals with Rattus norvegicus. Put plainly: Inhibition of retinal leukostasis in STZ-induced Wistar rat diabetic retinopathy model assessed as adherent leukocyte count per retina at 50 ug/eye administered intravitreally measured after 3 days by FITC-ConA staining based fluorescence microscopic method (reference value: 52 +/- 10). The series is classed as functional.
The test system of another series is HUVEC. Put plainly: Cytotoxicity against HUVEC assessed as reduction in cell viability up to 20 uM after 24 hrs by MTT assay. It is filed as cell-based. The settings on record: human. (In general: Tetrazolium dyes change colour on reduction, which living cells bring about.)
In series [6] the test system is Rattus norvegicus. Kind of series: Toxicity in STZ-induced Wistar rat diabetic retinopathy model assessed as TUNEL positive cells in retinal layers at 75 ug/eye administered intravitreally measured after 3 days by fluorescence microscopic method. The settings on record: in vivo, topical_or_ocular, 72 h.
Series [7] deals with Rattus norvegicus. Put plainly: Toxicity in STZ-induced Wistar rat diabetic retinopathy model assessed as inflammatory cells accumulation in vitreous at 75 ug/eye administered intravitreally measured after 3 days by hematoxylin and eosin staining based assay. The settings on record: in vivo, topical_or_ocular, 72 h.
Series [8] is filed under the species Homo sapiens. Kind of series: Inhibition of TNFalpha-stimulated NF-kB in HUVEC assessed as reduction in ICAM1 mRNA level up to 20 uM preincubated with cells followed by TNFalpha stimulation measured after 30 mins by RT-PCR method.
In series [9] the test system is Rattus norvegicus. Kind of series: Toxicity in STZ-induced Wistar rat diabetic retinopathy model assessed as inflammatory cells accumulation in retina at 75 ug/eye administered intravitreally measured after 3 days by hematoxylin and eosin staining based assay. The settings on record: in vivo, topical_or_ocular, 72 h.
Series [10] has as its target Transcription factor p65 (Homo sapiens) (UniProt Q04206). Kind of series: Inhibition of TNFalpha-stimulated NF-kB p65 phosphorylation at Ser-276 residue in HUVEC up to 20 uM preincubated with cells followed by TNFalpha stimulation measured after 30 mins by Western blot method.
Series [11] has as its target T1, Inhibitor of nuclear factor kappa-B kinase subunit beta (Homo sapiens) (UniProt O14920).
T1 sequence (whole entry): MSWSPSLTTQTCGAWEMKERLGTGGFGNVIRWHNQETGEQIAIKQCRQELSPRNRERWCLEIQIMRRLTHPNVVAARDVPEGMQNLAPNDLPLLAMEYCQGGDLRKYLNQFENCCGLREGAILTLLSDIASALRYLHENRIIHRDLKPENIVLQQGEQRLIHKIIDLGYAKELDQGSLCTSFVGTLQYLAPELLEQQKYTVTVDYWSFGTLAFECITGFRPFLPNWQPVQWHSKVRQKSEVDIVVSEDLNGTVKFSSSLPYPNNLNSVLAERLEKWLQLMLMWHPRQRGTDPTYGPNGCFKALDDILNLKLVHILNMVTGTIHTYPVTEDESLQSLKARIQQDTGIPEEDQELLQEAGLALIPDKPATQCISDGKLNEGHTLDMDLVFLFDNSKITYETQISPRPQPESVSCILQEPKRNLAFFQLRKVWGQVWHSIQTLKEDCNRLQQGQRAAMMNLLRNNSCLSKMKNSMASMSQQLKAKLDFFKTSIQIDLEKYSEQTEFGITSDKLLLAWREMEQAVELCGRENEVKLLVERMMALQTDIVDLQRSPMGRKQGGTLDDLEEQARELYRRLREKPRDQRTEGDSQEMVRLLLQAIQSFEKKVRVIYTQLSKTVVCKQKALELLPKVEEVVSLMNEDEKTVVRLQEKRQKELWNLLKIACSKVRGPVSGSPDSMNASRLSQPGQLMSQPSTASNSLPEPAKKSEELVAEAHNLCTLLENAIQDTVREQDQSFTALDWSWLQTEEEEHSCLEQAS
Put plainly: Inhibition of TNFalpha-stimulated IKKbeta phosphorylation at Ser-177 residue in HUVEC preincubated with cells followed by TNFalpha stimulation measured after 30 mins by Western blot method.

For series [12], the target named is MAP kinase p38 (Homo sapiens) (UniProt O15264+Q15759+Q16539+P53778). Kind of series: Inhibition of TNFalpha-stimulated MAPK p38 phosphorylation in HUVEC preincubated with cells followed by TNFalpha stimulation measured after 30 mins by Western blot method.
In series [13] the target is Transcription factor p65 (Homo sapiens) (UniProt Q04206). Kind of series: Inhibition of TNFalpha-stimulated NF-kB p65 phosphorylation at Ser-536 residue in HUVEC up to 20 uM preincubated with cells followed by TNFalpha stimulation measured after 30 mins by Western blot method.
Sequence of Transcription factor p65 (Homo sapiens) (Q04206 whole entry): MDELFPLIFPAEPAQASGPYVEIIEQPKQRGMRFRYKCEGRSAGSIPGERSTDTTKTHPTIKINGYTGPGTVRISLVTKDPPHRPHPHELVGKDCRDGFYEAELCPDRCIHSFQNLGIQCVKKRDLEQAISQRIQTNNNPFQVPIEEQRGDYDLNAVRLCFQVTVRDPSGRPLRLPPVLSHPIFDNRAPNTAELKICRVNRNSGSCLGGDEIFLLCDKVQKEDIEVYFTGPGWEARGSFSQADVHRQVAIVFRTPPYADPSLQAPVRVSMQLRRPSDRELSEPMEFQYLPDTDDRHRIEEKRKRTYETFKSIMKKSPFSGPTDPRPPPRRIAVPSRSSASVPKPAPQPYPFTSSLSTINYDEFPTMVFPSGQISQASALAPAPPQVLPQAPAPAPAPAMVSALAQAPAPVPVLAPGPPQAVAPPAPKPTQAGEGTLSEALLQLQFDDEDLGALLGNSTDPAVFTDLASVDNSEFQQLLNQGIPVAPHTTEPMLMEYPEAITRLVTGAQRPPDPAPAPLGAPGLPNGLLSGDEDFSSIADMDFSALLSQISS
For series [14], the target named is T1, Inhibitor of nuclear factor kappa-B kinase subunit beta (Homo sapiens). Put plainly: Inhibition of IKKbeta in HUVEC assessed as reduction in TNFalpha-stimulated IkBalpha phosphorylation at Ser-32 residue preincubated with cells followed by TNFalpha stimulation measured after 30 mins by Western blot method.
Series [15] concerns the target c-Jun N-terminal kinase, JNK (Homo sapiens) (UniProt P45983+P53779+P45984). Put plainly: Inhibition of TNFalpha-stimulated JNK phosphorylation in HUVEC up to 20 uM preincubated with cells followed by TNFalpha stimulation measured after 30 mins by Western blot method.
Series [16] has as its system Rattus norvegicus. Kind of series: Toxicity in STZ-induced Wistar rat diabetic retinopathy model assessed as inflammatory cells accumulation in choroid tissues at 75 ug/eye administered intravitreally measured after 3 days by hematoxylin and eosin staining based assay. The settings on record: in vivo, topical_or_ocular, 72 h.
The target of series [17] is Transcription factor p65 (Homo sapiens) (UniProt Q04206). Kind of series: Inhibition of TNFalpha-stimulated NF-kB p65 nuclear translocation in HUVEC up to 20 uM preincubated with cells followed by TNFalpha stimulation measured after 30 mins by Western blot method.
The species named for series [18] is Homo sapiens. Kind of series: Inhibition of TNFalpha-stimulated NF-kB in HUVEC assessed as reduction in TNFalpha mRNA level up to 20 uM preincubated with cells followed by TNFalpha stimulation measured after 30 mins by RT-PCR method.
Series [19] has as its system Rattus norvegicus. Put plainly: Toxicity in STZ-induced Wistar rat diabetic retinopathy model assessed as effect on retina thickness at 75 ug/eye administered intravitreally measured after 3 days by hematoxylin and eosin staining based assay. The settings on record: in vivo, topical_or_ocular, 72 h.

Calls of active or inactive are those of the source. The calls are words filed in the database; no cut-off is given here.

Regarding `CC1(C)O[C@@H]2C[C@H]3[C@@H]4CCC5=CC(=O)C=C[C@]5(C)[C@@]4(F)[C@@H](O)C[C@]3(C)[C@]2(C(=O)CO)O1` [TRIAMCINOLONE ACETONIDE], the values for the Activity in the series with Rattus norvegicus [1] and with Rattus norvegicus [5] were 36.33 µg/g and 19, respectively. For the same compound, the result with Rattus norvegicus [2] and in the series on Rattus norvegicus [4] was Active. Further, the inhibition result with Rattus norvegicus [3] is “Active”.

In the case of `CC1=C[C@]2(C(C)(C)O)C[C@]3(OC2=O)[C@@H](C)CC[C@@H]13`, the Activity result is “Non-Toxic” with HUVEC; “Non-Toxic” in the series on Rattus norvegicus [6]; “Non-Toxic” in the series with Rattus norvegicus [7]; “Non-Toxic” with Rattus norvegicus [9]; 43.53 µg/g in the series on Rattus norvegicus [1]; “Non-Toxic” in the series with Rattus norvegicus [16]. For the same compound, the Activity result is on record as “Non-Toxic” in the series with Rattus norvegicus [19] and 25 with Rattus norvegicus [5]. In addition, the inhibition result (in the series filed under Homo sapiens [8]; in series [10]; in series [13]; in the series on Rattus norvegicus [3]; in [17]; in the series filed under Homo sapiens [18]) was “Active” each time. Moreover, the inhibition entry in [11], in series [12] and in series [14] was “Dose-dependent effect” in each case. Besides, the result in the series with Rattus norvegicus [2] and in the series with Rattus norvegicus [4] was Active. In addition, in series [15], the inhibition result is “inactive”.
